Results taken from patent US11219621B2, “Methods for treating immunodeficiency disease” (X4 Pharmaceuticals, Inc., priority 2015, dated 2022).

How the values were obtained:
[1] = test system: granulocyte-macrophage (CFU-GM), erythroid (BFU-E) and multipotential (CFU-GEMM) progenitor cells; test: Progenitor/stem cell mobilization in mice after single subcutaneous injection; type: in vivo, C3H/HeJ mice; conditions: 5 mg/kg s.c.
Procedure: All experiments were performed in […] mice. […] The progenitors were stimulated to form colonies in vitro with the combination of 1 U/mL rhu EPO, 50 ng/mL rmu SLF, 5% vol/vol pokeweed mitogen mouse spleen cell conditioned medium (PWMSCM), and 0.1 mM hemin. Plates were scored 7 days after incubation at 37° C., 5% CO2, lowered […] and in a humidified chamber.
In the first experiment (data shown in Table 6), mice received a dose of 5 mg/kg- and the number of progenitors in the circulating blood was measured at various time points (0.25, 0.5, 1, 2, 6 and 24 hours).

[2] = test system: granulocyte-macrophage (CFU-GM), erythroid (BFU-E) and multipotential (CFU-GEMM) progenitor cells; test: as above; type: in vivo, C3H/HeJ mice; conditions: Table 8; progenitor cells per mL of blood; 5 mg/kg s.c.; @ - 60″ (1 h)
wild type CXCR4 = molecular target: T1, wild type CXCR4 (Homo sapiens, UniProt P61073); conditions: wild type CXCR4 in Cf2Th; read-out: EC50 for SDF-1α, calcium flux; cited from earlier work
T1 construct: expressed in transfected cells; host or cells: Cf2Th (canine thymus cell line lacking CXCR4)

R334X CXCR4 variant = molecular target: T2, R334X CXCR4 variant (Homo sapiens, UniProt P61073); conditions: R334X variant in Cf2Th; read-out: EC50 for SDF-1α, calcium flux; cited from earlier work
T2 construct: expressed in transfected cells; host or cells: Cf2Th (canine thymus cell line lacking CXCR4)

E343X CXCR4 variant = molecular target: T3, E343X CXCR4 variant (Homo sapiens, UniProt P61073); conditions: E343X variant in Cf2Th; read-out: EC50 for SDF-1α, calcium flux; cited from earlier work
T3 construct: expressed in transfected cells; host or cells: Cf2Th (canine thymus cell line lacking CXCR4)

[3] = Table 8, @ - 60″ (1 h), vs control
[4] = Table 8, progenitor cells per mL of blood, @ - 60″ (1 h)
[5] = comparison, AMD3100 at 1 hour, X4P-001 peak over 0.25-2 hours

T1 sequence (P61073 whole entry): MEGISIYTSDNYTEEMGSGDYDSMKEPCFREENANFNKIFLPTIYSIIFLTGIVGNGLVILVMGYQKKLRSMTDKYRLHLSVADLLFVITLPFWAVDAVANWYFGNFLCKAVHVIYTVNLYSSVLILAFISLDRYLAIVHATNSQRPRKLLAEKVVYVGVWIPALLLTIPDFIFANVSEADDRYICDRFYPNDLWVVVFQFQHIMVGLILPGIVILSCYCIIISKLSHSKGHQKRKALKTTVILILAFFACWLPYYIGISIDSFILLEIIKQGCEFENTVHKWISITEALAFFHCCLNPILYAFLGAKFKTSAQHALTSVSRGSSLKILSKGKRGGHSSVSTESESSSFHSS

Molecule	BFU (BFU-E), Fold Chg [1, 3] [fold]	GEMM (CFU-GEMM), Fold Chg [1, 3] [fold]	GM (CFU-GM), Fold Chg [1, 3] [fold]	Nucleated Cellularity PBL-LD, Fold Chg [1, 3] [fold]	GEMM (CFU-GEMM), Mean [1, 4]	GM (CFU-GM), Mean [1, 4]	Nucleated Cellularity PBL-LD, Mean ([1]; Table 8 comparison, @ - 60″ (1 h)) [mL⁻¹]	Maximum fold-increase in BFU-E [1, 5] [fold]	Maximum fold-increase in CFU-GEMM [1, 5] [fold]	Maximum fold-increase in CFU-GM [1, 5] [fold]	BFU (BFU-E), Mean [2]	EC50 (wild type CXCR4) [nM]	EC50 (R334X CXCR4 variant) [nM]	EC50 (E343X CXCR4 variant) [nM]
c1cc(CN2CCCNCCNCCCNCC2)ccc1CN1CCCNCCNCCCNCC1 [AMD3100, plerixafor, reference compound]	3.12	4.35	9.11	1.62	138.5	1950.3	1.008e+07	3.12	4.35	9.11	207.7	–	–	–
SDF-1α	–	–	–	–	–	–	–	–	–	–	–	13.6	11.3	15.3
